# Reference: patent US6069167A, “Use of antioxidant agents to treat cholestatic liver disease” (priority 1997, dated 2000)
# Tests used:
# [1] = test system: hepatic toxicity (liver); assay: Dose response of intravenous TCDC and hepatic toxicity (serum AST, ALT, bilirubin, alkaline phosphatase); assay type: in vivo, male Sprague-Dawley rats; settings: for Serum ALT / Serum AST: mean ± SEM, n = 4
# From the text: (§1) Young adult male Sprague-Dawley rats (150-180 gram weight) purchased from Sasco, Inc. (Omaha, Nebr.) were fed Purina Lab Chow (Ralston Purina Co., Chicago, Ill.) ad libitum for 2-3 weeks and housed in polyethylene cages with stainless steel tops on a 12-hour light-dark cycle. All rats received humane care in compliance with the guidelines of the Animal Use in Research Committee of the University of Colorado Health Sciences Center. Rats were then randomly assigned (4-5 per group) to receive 0 (vehicle only), 5, 10, or 20 μmol of taurochenodeoxycholic acid (TCDC)/100 gram body weight. TCDC is a conjugate of the bile acid most implicated in cholestatic liver injury9,11,12. TCDC was solubilized in 5% dextrose, 10% BSA, and 0.45% normal saline. TCDC was administered while rats were under light methoxyflurane anesthesia as an intravenous bolus of the desired dose in 1 to 2 minutes through the tail vein. TCDC dosing was performed between 7 and 9 am. Rats recovered from the injection uneventfully and blood was obtained at 0, 4, 8, 12 and 24 hours after the injection for determination of AST, ALT total bilirubin and alkaline phosphatase by an automated chemical analyzer (Hitachi 747 Chemical Analyzer).
# [2] = Serum bile acid concentrations four hours after intravenous TCDC by GC-MS; assay type: in vivo, male Sprague-Dawley rats
# From the text: as §1
# Because serum AST and ALT concentrations peaked at 4 hours, further evaluation of liver injury was performed at that time point Total concentrations (conjugated+free bile acids) of individual bile acids were measured in serum obtained at 4 hours by gas chromatography-mass spectroscopy (GC-MS), as previously described^30. Briefly, after serum samples were extracted with the addition of the internal standard 7-alpha, 12-alpha, dihydroxy-5 beta cholanic acid, trimethylsilyl esterification was performed. Individual bile acids were then quantified by GC or GC-MS using a Hewlett-Packard 5790 flame ionization detector equipped with a 30 meter DB-1 capillary column with internal diameter of 0.25 mm and a film thickness of 0.25 micrometers (J & W Scientific, Folsom, Calif.). For GC-MS measurements, a Hewlett-Packard 5970-A mass selective detector operating in selective ion monitoring mode was used. Results were expressed as μmol/L for each individual bile acid.
# [3] = test system: liver; assay: Histology of the liver in the in vivo reversible hepatic injury model; design: species or system rat
# From the text: The instant invention also provides for an in vivo reversible hepatic injury model animal model, preferably a rodent model, most preferably a rat model. The animal can be dosed with any injurious bile acid or analogs thereof Suitable injurious bile acids include conjugates of chenodeoxycholic acid and lithocholic acid. A particularly suitable injurious bile acid analog is taurochenodeoxycholic acid. The injurious bile acid or analog can be administered by any suitable means, such as injection, oral or rectal administration. The injurious bile acid or analog thereof can be conveniently administered intravenously, particularly intravenous administration in the tail vein. The time of administration should be for less than 10 minutes, preferably approximately 1 to 2 minutes.
# These histological findings are similar to those reported in a recently described rat model of continuous jugular vein infusion of TCDC at a rate of 0.4 to 0.6 μmol/min/100 gram over 60 minutes^31. […] However, the model of the instant invention produced similar results at half the TCDC dosages of the continuous TCDC infusion model, and allows for rapid, convenient infusion of TCDC.
# Based on these biochemical and histological findings, a suitable time point for the embodiment of the instant invention using TCDC as the toxic bile acid was the 4 hour, 10 μmol/100 gram weight dose.
# [4] = i.v. bolus TCDC in rats, data not shown
# [5] = i.v. bolus TCDC in rats, dose-dependent
# [6] = 4 h after i.v. TCDC 10 μmol/100 gram, mean ± SEM, n = 5, P < 0.05 versus vehicle
# [7] = 4 h after i.v. TCDC 10 μmol/100 gram, mean ± SEM, n = 5, conjugates plus unconjugates
smiles,measurement,setting,value
"C[C@H](CCC(=O)NCCS(=O)(=O)O)[C@H]1CC[C@H]2[C@@H]3[C@H](O)C[C@@H]4C[C@H](O)CC[C@]4(C)[C@H]3CC[C@]12C [TCDC, taurochenodeoxycholic acid]",Serum ALT,"[1]; TCDC dose 5 i.v., 0 h",52 ± 6 IU/L
same,Serum AST,"[1]; TCDC dose 5 i.v., 0 h",73 ± 9 IU/L
same,Serum ALT,"[1]; TCDC dose 5 i.v., 4 h",92 ± 23 IU/L
same,Serum AST,"[1]; TCDC dose 5 i.v., 4 h",121 ± 24 IU/L
same,Serum ALT,"[1]; TCDC dose 5 i.v., 8 h",88 ± 12 IU/L
same,Serum AST,"[1]; TCDC dose 5 i.v., 8 h",110 ± 12 IU/L
same,Serum ALT,"[1]; TCDC dose 5 i.v., 12 h",70 ± 7 IU/L
same,Serum AST,"[1]; TCDC dose 5 i.v., 12 h",105 ± 12 IU/L
same,Serum ALT,"[1]; TCDC dose 5 i.v., 24 h",72 ± 7 IU/L
same,Serum AST,"[1]; TCDC dose 5 i.v., 24 h",89 ± 3.5 IU/L
same,Serum ALT,"[1]; TCDC dose 10 i.v., 0 h",53 ± 3 IU/L
same,Serum AST,"[1]; TCDC dose 10 i.v., 0 h",92 ± 8 IU/L
same,Serum ALT,"[1]; TCDC dose 10 i.v., 4 h",1855 ± 701 IU/L
same,Serum AST,"[1]; TCDC dose 10 i.v., 4 h",3679 ± 1105 IU/L
same,Serum ALT,"[1]; TCDC dose 10 i.v., 8 h",1963 ± 701 IU/L
same,Serum AST,"[1]; TCDC dose 10 i.v., 8 h",2233 ± 1906 IU/L
same,Serum ALT,"[1]; TCDC dose 10 i.v., 12 h",492 ± 291 IU/L
same,Serum AST,"[1]; TCDC dose 10 i.v., 12 h",605 ± 249 IU/L
same,Serum ALT,"[1]; TCDC dose 10 i.v., 24 h",198 ± 82 IU/L
same,Serum AST,"[1]; TCDC dose 10 i.v., 24 h",328 ± 82 IU/L
same,Serum ALT,"[1]; TCDC dose 20 i.v., 0 h",64 ± 9 IU/L
same,Serum AST,"[1]; TCDC dose 20 i.v., 0 h",70 ± 6 IU/L
same,Serum ALT,"[1]; TCDC dose 20 i.v., 4 h",1712 ± 554 IU/L
same,Serum AST,"[1]; TCDC dose 20 i.v., 4 h",1456 ± 748 IU/L
same,Serum ALT,"[1]; TCDC dose 20 i.v., 8 h",1238 ± 257 IU/L
same,Serum AST,"[1]; TCDC dose 20 i.v., 8 h",2057 ± 939 IU/L
same,Serum ALT,"[1]; TCDC dose 20 i.v., 12 h",851 ± 167 IU/L
same,Serum AST,"[1]; TCDC dose 20 i.v., 12 h",1282 ± 375 IU/L
same,Serum ALT,"[1]; TCDC dose 20 i.v., 24 h",362 ± 75 IU/L
same,Serum AST,"[1]; TCDC dose 20 i.v., 24 h",399 ± 41 IU/L
same,Time of peak serum AST and ALT after injection,[1]; i.v. bolus TCDC in rats,4 h
same,"Serum alkaline phosphatase, change",[1]; [4],no significant changes
same,"Total serum bilirubin, change",[1]; [4],no significant changes
same,"Serum ALT concentration, change",[1]; [5],significant rise
same,"Serum AST concentration, change",[1]; [5],significant rise
same,"Serum individual bile acids, change versus vehicle",[2]; 4 h after i.v. TCDC 10 μmol/100 gram,significant increases in most bile acids
same,Serum alpha-muricholic acid concentration,[2]; [6],77.4 ± 15.9 µmol/L
same,Serum beta-muricholic acid concentration,[2]; [6],12.4 ± 3.3 µmol/L
same,Serum cholic acid concentration,[2]; [6],134.8 ± 30.2 µmol/L
same,Serum total bile acids concentration,[2]; [6],277.8 ± 49.0 µmol/L
same,Serum deoxycholic acid concentration,[2]; [7],4.8 ± 1.2 µmol/L
same,Serum lithocholic acid concentration,[2]; [7],0.6 ± 0.2 µmol/L
same,Serum ursodeoxycholic acid concentration,[2]; [7],4.4 ± 0.4 µmol/L
same,"CDC concentrations, change","[2]; in vivo model, TCDC",elevated to a similar extent as the other bile acids
same,"Lithocholate conjugates, change","[2]; in vivo model, TCDC",lack of substantial elevation
same,Histology of the liver,[3]; 4 h after TCDC 10 μmol/100 gram weight,"mild hepatocyte swelling, variable necrosis of individual hepatocytes, mild portal tract infiltration with lymphocytes without bile duct injury, and accumulation of smooth eosinophilic globules"
same,Reversibility of hepatocyte injury,"[3]; TCDC 10 μmol/100 gram weight, 24 h",much reduced by 24 hours after injection
same,Predominant histological findings of the in vivo model,"[3]; rat model, TCDC",Hepatocyte swelling and a mild degree of cellular necrosis
